# Values of other authors in patent US20070020177A1, “Radiometal complex compositions” (priority 2003, published 2007).
substance,measurement,setting,value
^99mTc-TRODAT-1,stable at room temperature,Fan et al,24 h
same,radiochemical purity reached by kit,"minimum of 10 μg tropane conjugate in the kit, autoclave heating 30 minutes, Choi et al",greater than 90%
